Common to all, as to assay: NCI-60 cell line screen, 48 h
In assay [1] the test system is NCI-H522 lung.
The subject of assay [2] is CAKI-1 renal.
Assay [3] deals with UACC-62 melanoma.
Assay [4] relates to OVCAR-5 ovarian.
Assay [5] relates to OVCAR-8 ovarian.
The test system of assay [6] is UO-31 renal.
The test system of assay [7] is IGROV1 ovarian.
Assay [8] relates to EKVX NSCLC.
For assay [9], the system named is OVCAR-3 ovarian.

Values joined by “and” are separate entries in the source; they are usually repeats but may differ in a detail not shown here. Equal values may be shown once.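 96-well plates; 48 h exposure; 5 concentrations. Endpoints by linear interpolation between flanking doses. Not reached: highest tested concentration assigned. GI50: concentration for 50% inhibition of growth. Definition used: TGI = concentration required for complete inhibition of growth.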

`COC(=O)C12C3C4C1C1C2C3C41C(=O)OC(C)(C)C` (stereo unspecified): the TGI in [1], in assay [2], in assay [3], in [4], in assay [5] and in assay [6] was more than 100 µM in each case. The TGI in [7], in assay [8] and in assay [9] was more than 100 µM throughout.

Take `Cc1cc(Br)cc(C)c1NC(=O)C(=O)C(C(=O)c1ccc2ccccc2c1)C1OC(=O)c2ccccc21` (stereo unspecified): the TGI worked out at 22.8 µM in [1]; 51.1 µM in assay [2]; 29.6 µM in assay [3]; 19.7 µM in [4]; 22.8 µM in assay [5]; 30.3 µM in assay [6]. Besides, the TGI in assay [7] is 51.8 µM; in [8] it was 65.3 µM; in assay [9] it was more than 64.8 µM.

In the case of `O=S(O)CCCCSSCC(O)C(O)CSSCCCCS(=O)O` (stereo unspecified), in assay [1], the GI50 is 6.48 µM and 13 µM. Besides, the TGI in assay [1] was 20 µM and 30.4 µM; in [2], more than 100 µM; in assay [3], 25.6 µM and 38.2 µM; in assay [4], more than 100 µM; in assay [5], 96.5 µM and > 100 µM; in assay [6], 67.3 µM and 79.5 µM. The TGI in assay [7] is more than 100 µM; in [8] it was > 100 µM and 93.1 µM; in [9], 23.8 µM and 25.6 µM.

For the molecule `CC1OC(n2cc(F)c(=O)[nH]c2=O)C=CC1O` (stereo unspecified), the TGI in assay [1], in [2], in assay [3], in [4], in [5] and in assay [6] was more than 100 µM throughout. Besides, the TGI in assay [7], in assay [8] and in [9] was more than 100 µM in each case.

As to `COC(=O)C(C(=O)C(=O)Nc1cccc(OC)c1)c1cnc2ccccc2n1` (stereo unspecified), the TGI in assay [1], in [2], in assay [3], in assay [4], in assay [5] and in [6] was more than 100 µM throughout. In addition, the TGI in assay [7] and in assay [8] was more than 100 µM in each case.

Take `O=C(O/N=C1/CCCC/C1=C\c1ccccc1)c1ccccc1`: the TGI in assay [1] is more than 100 µM; in assay [3], more than 100 µM; in [4], more than 100 µM; in assay [5] it was more than 100 µM; in assay [6], more than 100 µM; in assay [7] it was 0.78 µM. The TGI in assay [8] and in assay [9] was more than 100 µM each time.

Take `O=C1c2ccccc2C(=O)C1(Cl)C1(S(=O)(=O)O)c2ccccc2-c2ccccc21`: the TGI in assay [1], in [2], in assay [3], in assay [4], in [5] and in [6] was more than 100 µM each time. In addition, the TGI in assay [7] and in [9] was more than 100 µM each time.

For the molecule `CC1=CC(/C=C(\C)CCCc2ccoc2)C2(OC(=O)C(C)=C2O)[C@H]2C1CC[C@@H]2C` (stereo partly specified), the TGI was 31.2 µM in [1]; more than 100 µM in [2]; 37.5 µM in assay [3]; more than 100 µM in assay [5]; 31 µM in assay [6]; more than 100 µM in assay [7]. Besides, the results for the TGI in assay [8] and in assay [9] were more than 100 µM and 51 µM, respectively.

As to `CCCCN(CCCC)CC(C(=O)Nc1ccc([N+](=O)[O-])cc1[N+](=O)[O-])/C(C)=N\NC(=S)NN` (stereo unspecified), the TGI in assay [1] is 65.4 µM; in [3], more than 100 µM; in assay [4], more than 100 µM; in assay [5], more than 100 µM; in assay [6], more than 100 µM; in [7] it was more than 100 µM. Besides, the TGI in [8] and in assay [9] was more than 100 µM each time.

Consider `O=C1CN=C(C[N+](=O)[O-])c2ccccc21`, for which the TGI in assay [1], in assay [2], in [4], in [5], in assay [6] and in assay [7] was more than 100 µM throughout. The TGI in assay [8] and in assay [9] was more than 100 µM in each case.

On to `COC(=O)C1=C(c2ccc3c(c2)OCO3)O[C@H](c2cc(OC)c(OC)c(OC)c2)[C@H]1COC(C)=O`, for which the TGI in assay [2] was 66.8 µM; in assay [3], 47.6 µM; in assay [4], more than 100 µM; in assay [5], 93.6 µM; in assay [6] it was 31.6 µM; in assay [7], 81 µM. For the same molecule, the results for the TGI in assay [8] and in assay [9] were more than 100 µM and 8.22 µM, respectively.

Regarding `CNC(=S)NC1CCCCC1NC(=S)NC` (stereo unspecified), the TGI in assay [1], in assay [2], in assay [3], in [4], in assay [5] and in assay [6] was more than 100 µM each time. The TGI in assay [7], in assay [8] and in assay [9] was more than 100 µM throughout.

Consider `CC(C)(C)[SiH]12(OC(C(F)(F)F)(C(F)(F)F)c3ccccc31)OC(C(F)(F)F)(C(F)(F)F)c1ccccc12`, for which the TGI in assay [1] was determined as 17.7 µM; in [2], 25.3 µM; in assay [4] it was 6.25 µM; in [5], 28.9 µM; in assay [6], 19.2 µM; in [8], 14.1 µM. Besides, the TGI in assay [9] came to 16.6 µM.

Turning to `CCCCOC(=O)C1C(c2ccc(Cl)cc2)NC(c2ccc(Cl)cc2)C(C(=O)OCCCC)S1(=O)=O` (stereo unspecified), the TGI in [1], in assay [2], in assay [3], in [4], in assay [5] and in [6] was more than 100 µM in each case. Further, the TGI in [7], in [8] and in assay [9] was more than 100 µM each time.

For `COc1ccc(NC(=O)CCc2cc(-c3ccc(O)c(OC)c3)nc(NC#N)n2)cc1`, the TGI in [2], in assay [3], in [4], in assay [5], in assay [6] and in assay [7] was more than 100 µM in each case. Besides, the TGI in assay [8] and in assay [9] was more than 100 µM throughout.
